The values that follow come from BindingDB's records for doi:10.7270/Q21R6P59 (German University In Cairo, 2011).

The target in the test is cGMP-specific 3',5'-cyclic phosphodiesterase (Homo sapiens, UniProt O76074). The experiment in a line: Phosphodiesterase Inhibition Assay. The method, then:
PDE activity was measured using a modification of the IMAP fluorescence polarization phosphodiesterase assay from Molecular Devices. The assay was modified to use tetramethylrhodamine (TAMRA-) cGMP as substrate. PDE hydrolysis of the fluorescent labeled substrate allows it to bind the IMAP binding reagent, which results in increased FP.
As for `COC(=O)[C@@H]1Cc2c([nH]c3ccccc23)[C@H](c2ccc(OC)cc2OC)N1` [PDE5 Inhibitor, 4], the 50% inhibitory concentration (IC50) amounted to 6400 nM. `C=CCn1c(O)c2n(c1=S)[C@H](c1ccc(OC)cc1OC)c1[nH]c3ccccc3c1C2` [PDE5 Inhibitor, 19]: it took 560 nM to reach half-maximal inhibition (IC50). With `CCn1c(O)c2n(c1=O)[C@H](c1ccc(OC)cc1OC)c1[nH]c3ccccc3c1C2` [PDE5 Inhibitor, 8] the figure was 360 nM; with `CCn1c(O)c2n(c1=O)[C@@H](c1ccc(OC)cc1OC)c1[nH]c3ccccc3c1C2` [PDE5 Inhibitor, 6], 720 nM; with `COc1ccc([C@@H]2c3[nH]c4ccccc4c3Cc3c(O)n(C(C)(C)C)c(=O)n32)c(OC)c1` [PDE5 Inhibitor, 12], 550 nM. Molecule `COc1ccc([C@H]2c3[nH]c4ccccc4c3Cc3c(O)n(C(C)(C)C)c(=O)n32)c(OC)c1` [PDE5 Inhibitor, 9] showed an IC50 of 2400 nM.

What is called IC50 is the concentration at which inhibition is half-maximal. Higher therefore signals lower potency.
